# From patent US10548861B2 (Academia Sinica, priority 2015, dated 2020)
# pIC50: −log10 of the molar value. Where two headings read alike, the source gives them in different places.
# Key:
# [1] = system: MA-10-W51 CB MLL-AF9 + Flt3ITD; assay: Cytotoxicity: AML HSC-derived; assay type: cell-based, human; details: growth factor dependent MA-10-W51, FIG. 9
# Excerpt: • a) Growth factor-dependent & cell density growth dependent cell lines. Human cord blood CD34+ cells transduced with MLL-AF9 gene: MA-10, MA-18. Human bone marrow CD34+ cells transduced with MLL-AF9 gene: MA-23. Human cord blood CD34+ cells transduced with MLL-AF9 and N-ras genes: MA-9.3, MA-9.6. • b) Growth factor independent leukemic cell lines. Human MA-10 cells transduced with Flt3 ITD (W51) were adapted to in vitro proliferation without growth factors (Moore Laboratory).
# FTE-hTERT = assay: 72 hr cytotoxicity: Fallopian epithelium; assay type: cell-based; details: Homo sapiens
# BMEC-hTert = assay: cells; assay type: cell-based; details: Homo sapiens, 72 h
# HUVEC = assay: 72 hr cytotoxicity: Umbilical endothelium; assay type: cell-based; details: Homo sapiens, HUVEC, 72 h
# [2] = system: normal cord blood CD34+ cells; assay: Cytotoxicity on normal cord blood CD34+ cells; assay type: cell-based; details: Homo sapiens
# BCI-NSI hTERT = assay: 72 hr cytotoxicity: Bronchial epithelium; assay type: cell-based; details: Homo sapiens
# HS578 = assay: 72 hr cytotoxicity: Breast epithelium; assay type: cell-based; details: Homo sapiens, Hs578, 72 h
# IMR90 = assay: 72 hr cytotoxicity: fetal lung myofibroblast; assay type: cell-based; details: Homo sapiens, IMR-90, 72 h
# [3] = system: Cord Blood CFC (CFU-GM, BFU-E, CFU-C); assay: cells; assay type: cell-based; details: Homo sapiens
# MS-5 (mouse) = assay: 72 hr cytotoxicity: Adult BM stroma; assay type: cell-based; details: MS-5 murine stroma
# [4] = system: normal human, murine or primate cell and tissue types; assay: MTT / alamar blue cytotoxicity on panel of normal tissues; assay type: cell-based; details: read-out: IC50 range
# 16HBE SV40+ = assay: cells; assay type: cell-based; details: Homo sapiens, 72 h
# [5] = system: MCL line JEKO-1 vs normal human tissues; assay type: cell-based
# BEAS2B SV40 = assay: cells; assay type: cell-based; details: Homo sapiens, BEAS-2B, 72 h
# MRC5 = assay: cells; assay type: cell-based; details: Homo sapiens, MRC5, 72 h
# [6] = system: primary B-ALL vs normal human tissues; assay type: cell-based
# [7] = system: H526 variant SCLC cell line vs normal human tissues; assay type: cell-based
# [8] = system: primary AML (AML-2) vs normal human tissues; assay type: cell-based
# [9] = system: MV4;11 AML cell line vs normal human tissues; assay type: cell-based
# H187 = assay: 72 hr cytotoxicity: SCLC classic; assay type: cell-based; details: Homo sapiens, NCI-H187
# H526 = assay: 72 hr cytotoxicity: SCLC variant; assay type: cell-based; details: Homo sapiens, NCI-H526
# H562 = assay: 72 hr cytotoxicity: SCLC classic; assay type: cell-based; details: Homo sapiens
# BMMSC = assay: 72 hr cytotoxicity: BM Mesenchyme; assay type: cell-based; details: Homo sapiens
# H417 = assay: 72 hr cytotoxicity: SCLC variant; assay type: cell-based; details: Homo sapiens, NCI-H417
# H209 = assay: 72 hr cytotoxicity: SCLC classic; assay type: cell-based; details: Homo sapiens, NCI-H209
# H146 = assay: 72 hr cytotoxicity: SCLC classic; assay type: cell-based; details: Homo sapiens, NCI-H146
# H719 = assay: 72 hr cytotoxicity: SCLC classic; assay type: cell-based; details: Homo sapiens
# H524 = assay: 72 hr cytotoxicity: SCLC variant; assay type: cell-based; details: Homo sapiens, NCI-H524
# H841 = assay: 72 hr cytotoxicity: SCLC variant; assay type: cell-based; details: Homo sapiens, NCI-H841
# H678 = assay: 72 hr cytotoxicity: SCLC classic; assay type: cell-based; details: Homo sapiens
# H60 = assay: 72 hr cytotoxicity: SCLC classic; assay type: cell-based; details: Homo sapiens
# H889 = assay: 72 hr cytotoxicity: SCLC classic; assay type: cell-based; details: Homo sapiens, NCI-H889
# H82 = assay: 72 hr cytotoxicity: SCLC variant; assay type: cell-based; details: Homo sapiens, NCI-H82
# H69 = assay: 72 hr cytotoxicity: SCLC classic; assay type: cell-based; details: Homo sapiens, NCI-H69
# H249 = assay: 72 hr cytotoxicity: SCLC classic; assay type: cell-based; details: Homo sapiens
# REC-1 [10] = assay: Cytotoxicity: Mantle Cell Lymphoma; details: Homo sapiens, Rec1
# HBL2 [11] = assay: Cytotoxicity: Mantle Cell Lymphoma; details: Homo sapiens, HBL2
# H211 = assay: 72 hr cytotoxicity: SCLC variant; assay type: cell-based; details: Homo sapiens, NCI-H211; read-out: IC50
# H128 = assay: 72 hr cytotoxicity: SCLC classic; assay type: cell-based; details: Homo sapiens, NCI-H128; read-out: IC50
# [12] = system: Ewing's sarcoma primary patient tumor; assay: Cyclophosphamide-resistant primary Ewing's sarcoma xenograft; assay type: in vivo, NSG mice; details: cyclophosphamide 70 mg/kg i.p. x3, then BO-1055 30 mg/kg iv x4
# NECB1 = assay: Drug combination cytotoxicity with BO-1055; assay type: cell-based, human
# REC-1 [13] = assay: Drug combination cytotoxicity with BO-1055; assay type: cell-based, human
# JEKO-1 = assay: Drug combination cytotoxicity with BO-1055; assay type: cell-based; details: Homo sapiens, JeKo-1, 72 h, read-out: IC50 single drug
# HBL2 [14] = assay: Drug combination cytotoxicity with BO-1055; assay type: cell-based; details: Homo sapiens, HBL2, 72 h, read-out: IC50 single drug
# Mino = assay: Drug combination cytotoxicity with BO-1055; assay type: cell-based, human
# Z-138 = assay: Drug combination cytotoxicity with BO-1055; assay type: cell-based, human
# Granta = assay: Drug combination cytotoxicity with BO-1055; assay type: cell-based, human
# [15] = Homo sapiens, 72 h, read-out: IC50 single drug
smiles,measurement,setting,value
CCc1c(CO)c(CO)c2n1Cc1c(c3ccccc3n1C)C2 [BO-1978],cytotoxicity (in words),[1],"highly cytotoxic, with BO-1978 more so than BO-1055"
Cn1c(CCCC(=O)O)nc2cc(N(CCCl)CCCl)ccc21 [Bendamustine],pIC50,FTE-hTERT; 72 h,3.40
same,pIC50,BMEC-hTert,3.52
same,pIC50,HUVEC,3.85
same,pIC50,[2]; 72 h,5.00
same,pIC50,BCI-NSI hTERT; 72 h,4.07
same,pIC50,HS578,< 4.00
same,pIC50,IMR90,4.49
same,pIC50,[3],5.00
same,pIC50,MS-5 (mouse),5.65
same,pIC50,[4],3.40 to 4.70
same,pIC50,16HBE SV40+,5.45
same,TW,[5],1.60-6.36 fold
same,pIC50,BEAS2B SV40,< 5.00
same,pIC50,MRC5,< 4.70
N.N.[Cl][Pt][Cl] [Cisplatin],Therapeutic window,[6]; Bci- (NSI) relative to B-ALL,0.50
same,Therapeutic window,[6]; CD34+ relative to B-ALL,0.10
same,Therapeutic window,[6]; FTEC relative to B-ALL,20.00
same,Therapeutic window,[6]; HUVEC relative to B-ALL,0.83
same,Therapeutic window,[6]; huMSC relative to B-ALL,0.33
same,therapeutic window (TW),"[7]; Bci- (NSI), normalized to 1.00 for H526",83.33
same,therapeutic window (TW),"[7]; CD34+, normalized to 1.00 for H526",33.33
same,therapeutic window (TW),"[7]; FTEC, normalized to 1.00 for H526",1041.7
same,therapeutic window (TW),[7]; H526 (reference),1.00
same,therapeutic window (TW),"[7]; HUVEC, normalized to 1.00 for H526",58.33
same,therapeutic window (TW),"[7]; huMSC, normalized to 1.00 for H526",75.00
same,pIC50,[4],5.39 to 5.44
same,Therapeutic window,[8]; Bci- (NSI) relative to AML-2,0.50
same,Therapeutic window,[8]; CD34+ relative to AML-2,0.10
same,Therapeutic window,[8]; FTEC relative to AML-2,1.67
same,Therapeutic window,[8]; HUVEC relative to AML-2,0.83
same,Therapeutic window,[8]; huMSC relative to AML-2,0.33
same,Therapeutic window,[9]; CD34+ relative to MV4;11,0.75
same,Therapeutic window,[9]; HUVEC relative to MV4;11,6.25
same,Therapeutic window,[9]; NSI (Bci-NSI) relative to MV4;11,3.75
same,Therapeutic window,[9]; huMSC relative to MV4;11,2.50
COc1cc([C@@H]2c3cc4c(cc3[C@@H](O[C@@H]3O[C@@H]5CO[C@@H](C)O[C@H]5[C@H](O)[C@H]3O)[C@H]3COC(=O)[C@H]23)OCO4)cc(OC)c1O [Etoposide],pIC50,FTE-hTERT; 72 h,3.70
same,pIC50,H187,6.22
same,pIC50,H526,6.10
same,pIC50,[2]; 72 h,7.05
same,pIC50,H562,5.26
same,pIC50,BMMSC; 72 h,4.15
same,pIC50,BCI-NSI hTERT; 72 h,6.30
same,pIC50,H417,5.43
same,pIC50,H209,6.30
same,pIC50,H146,5.54
same,pIC50,H719,≤ 5.00
same,pIC50,H524,5.85
same,pIC50,H841,6.22
same,pIC50,H678,6.51
same,pIC50,H60,≤ 4.70
same,pIC50,H889,5.85
same,pIC50,H82,5.01
same,pIC50,H69,6.40
same,pIC50,H249,5.39
CC(=O)O[C@H]1C(=O)[C@@]2(C)[C@H]([C@H](OC(=O)c3ccccc3)[C@]3(O)C[C@H](OC(=O)[C@H](O)[C@@H](NC(=O)c4ccccc4)c4ccccc4)C(C)=C1C3(C)C)[C@]1(OC(C)=O)CO[C@@H]1C[C@@H]2O [Paclitaxel],pIC50,REC-1 [10],7.68
same,pIC50,HBL2 [11],7.80
Cc1[nH]c2ccccc2c1CCNCc1ccc(/C=C/C(=O)NO)cc1 [Panobinostat],pIC50,REC-1 [10],7.22
same,pIC50,HBL2 [11],7.89
CC[C@]1(O)C[C@H]2CN(CCc3c([nH]c4ccccc34)[C@@](C(=O)OC)(c3cc4c(cc3OC)N(C=O)[C@H]3[C@@](O)(C(=O)OC)[C@H](OC(C)=O)[C@]5(CC)C=CCN6CC[C@]43[C@@H]65)C2)C1 [Vincristine],pIC50,"FTE-hTERT; FTEC Fallopian tube epithelium, 72 hr, read-out: IC50",3.60
same,pIC50,H187; read-out: IC50,9.00
same,pIC50,H526; read-out: IC50,6.87
same,pIC50,"[2]; CD34 (cord blood hematopoietic progenitors), 72 hr, read-out: IC50",5.63
same,pIC50,"H562; H562, read-out: IC50",9.00
same,pIC50,"BMMSC; HuMSC bone marrow mesenchymal stem cells, 72 hr, read-out: IC50",5.20
same,pIC50,"BCI-NSI hTERT; Bci-NSI hTERT immortalized lung bronchus epithelium, 72 hr, read-out: IC50",3.70
same,pIC50,H417; read-out: IC50,8.70
same,pIC50,H209; read-out: IC50,9.00
same,pIC50,H146; read-out: IC50,5.54
same,pIC50,"H719; H719, read-out: IC50",8.70
same,pIC50,H524; read-out: IC50,9.00
same,pIC50,H841; read-out: IC50,8.70
same,pIC50,"H678; H678, read-out: IC50",8.70
same,pIC50,"H60; H60, read-out: IC50",8.70
same,pIC50,H889; read-out: IC50,9.00
same,pIC50,H82; read-out: IC50,8.15
same,pIC50,H69; read-out: IC50,8.52
same,Therapeutic window,[9],1.00
same,pIC50,H211,8.70
same,pIC50,H128,8.30
same,pIC50,"H249; H249, read-out: IC50",9.00
O=P1(N(CCCl)CCCl)NCCCO1 (stereo not shown) [cyclophosphamide],tumor response,[12],Tumor growth was not inhibited
"CC(C)C[C@H](NC(=O)[C@H](Cc1ccccc1)NC(=O)c1cnccn1)B(O)O [velcade, Bortezomib]","interaction with BO-1055 (combo-1, combo-2)",NECB1,synergistic with combo-1 and antagonistic with combo-2
same,pIC50,NECB1; [15],6.86
same,"interaction with BO-1055 (combo-1, combo-2)",REC-1 [13],antagonistic in both combinations
same,pIC50,"REC-1 [13]; Homo sapiens, Rec1, 72 h, read-out: IC50 single drug",8.10
same,pIC50,JEKO-1,7.82
same,pIC50,HBL2 [14],8.30
same,"interaction with BO-1055 (combo-1, combo-2)",Mino,synergistic cytotoxic with both combinations
same,pIC50,"Mino; Homo sapiens, MINO, 72 h, read-out: IC50 single drug",7.40
same,"interaction with BO-1055 (combo-1, combo-2)",Z-138,synergistic cytotoxic with both combinations
same,pIC50,"Z-138; Homo sapiens, Z-138, 72 h, read-out: IC50 single drug",8.10
same,"interaction with BO-1055 (combo-1, combo-2)",Granta,synergistic with combo-1 and antagonistic with combo-2
same,pIC50,Granta; [15],8.10
